Reference: US20160222014A1, “COMPOUNDS FOR REGULATING FAK AND/OR SRC PATHWAYS” (ASANA BIOSCIENCES, LLC, priority 2013, published 2016)

Key:
AURKB (Aurora B) enzyme = biological target: T1, AURKB (Aurora B) enzyme (Homo sapiens, UniProt Q96GD4); experiment: Aurora B HTRF assay; format: biochemical; conditions: read-out: AuroraB IC50
T1 construct: purchased Invitrogen PVR 130
Experimental: AURKB (Aurora B) enzyme was obtained (Invitrogen, Cat No. PVR 130, Lot No. 857013J). A 8.64 μM stock was used at a final concentration 5 nM in the assay.
Lance@Ultera Ulight-PLK (Ser137) peptide substrate
Peptide substrate was obtained from Perkin Elmer (Lot#1629793, TRF0110-M). A 5 μM stock was used at a final concentration of 50 nM in the assay.
10 mM stock prepared freshly as above, used at a final concentration of 30 μM in assay.
The plate was covered with aluminum foil, put on a shaker and incubated 1 h at rt.
Reference: Pfizer aurora inhibitor PF-03814735 was procured from Selleckchem: Cat# S2725
Using stock Lance detection buffer, 1× Lance detection buffer was prepared. • 1. 10× lance detection buffer was diluted to 1×, mixed well and 100 μL was removed, and was used to substitute with antibody and EDTA (for a total of 2200 μL). • 2. 88 μL of […] EDTA was added from 500 mM stock. • 3. 14 μL Europium labeled antibody (LANCE@ Ultra EU-Anti-P-PLK(Ser 137), TRF0203-D, Lot No. 1630351, Perkin Elmer) was added from 625 nM stock; required concentration was 2 nM in the assay. • 4. The buffer well was mixed and 20 μL was transferred to the each well in the assay plate. • 5. The solutions were incubated for 1 h at rt. • 6. The plate was read using MET-HTRF® protocol using Pherastar equipment.

recombinant human FAK1 = biological target: T2, recombinant human FAK1 (Homo sapiens, UniProt Q05397); experiment: FAK1 HTRF assay; format: biochemical
T2 construct: fused on or other part: N-terminal 6xHis tag
Experimental: Active FAK1 was prepared for use in the Homogeneous Time-Resolved Fluorescence (HTRF) assay. Briefly, N-terminal 6 His tagged recombinant human FAK1, from residue 692-end (GenBank accession no. L13616) was expressed by Bacculovirus in sf9 cells. […] A 1.6 mg/mL (45 μM) stock was used in the HTRF assay at a final concentration of 10 nM.
Gastrin precursor (tyr87) biotinylated peptide which contains the residues surrounding tyrosine 87 (EEAY*GWM) of gastrin precursor was obtained (Cell Signaling Tech, Item no. 1310, Lot 7). The peptide was provided at a stock concentration of 6 μM, and used a final concentration of 0.5 μM in the HTRF assay.
10 mM stock in 100 μL Enzyme assay buffer pH7.4 was prepared freshly and used at a final concentration of 10 μM in the assay.
Powders were dissolved in 100% DMSO to a final stock concentration of 10 mM. The volume needed (in μL) to add for 10 mM=mg powder is 10^5/MW of compound. The final compound concentration in the assay plate started at 10 μM.
Pfizer FAK inhibitor PF-562271 (N-methyl-N-(3-(((2-((2-oxoindolin-5-yl)amino)-5-(trifluoromethyl)pyrimidin-4-yl)amino)methyl)pyridin-2-yl)methanesulfonamide) was prepared as per the reported procedure from US Patent Publication No. 2005/256145A1.
Streptavidin-Allophycocyanin was obtained (Prozyme, Cat. No. PJ25S. SA-APC was provided at a stock concentration of 2.06 mg/mL, where APC concentration was 11.6 μM and the streptavidin concentration was 15.5 μM. SA-APC was used at a final concentration of 12 nM in the assay (based on streptavidin concentration).
This reagent was obtained from Perkin ElmerAD0068. Europium-W1024-PT-66 Anti Phospho Tyrosine Ab is a monoclonal IgG1 that recognizes phospho tyrosine peptide. 100 μg/mL stock was used at a final concentration of 0.1 nM in the assay.
• 1. The compound dilutions were made by TECAN liquid handler as per the scheme in FIG. 1. • 2. 16 μL of diluted compound was added to each well of the assay plate using TECAN liquid handler. • 3. 20 μL of substrate mix (biotinylated gastrin precursor) was added into each well of the assay plate manually. • 4. 10 μL of enzyme mix (FAK1) was added to each well except mins. • 5. The plate was incubated at rt for 45 min with shaking. • 6. The HTRF mix was prepared and 75 μL was added to the HTRF plate. • 7. After the incubation was over, 10 μL of the mixture was transferred to the HTRF assay plate and incubated for 45 min at rt with shaking. • 8. The readings were taken in Pherastar in HTRF mode (ext 337 nm, em 665 & 620 nm) • 9. The results were analyzed using Graphpad Prism® software after calculation the z factor signal window and % inhibition. • 10. The IC50 was calculated.

T1 sequence (Q96GD4 whole entry): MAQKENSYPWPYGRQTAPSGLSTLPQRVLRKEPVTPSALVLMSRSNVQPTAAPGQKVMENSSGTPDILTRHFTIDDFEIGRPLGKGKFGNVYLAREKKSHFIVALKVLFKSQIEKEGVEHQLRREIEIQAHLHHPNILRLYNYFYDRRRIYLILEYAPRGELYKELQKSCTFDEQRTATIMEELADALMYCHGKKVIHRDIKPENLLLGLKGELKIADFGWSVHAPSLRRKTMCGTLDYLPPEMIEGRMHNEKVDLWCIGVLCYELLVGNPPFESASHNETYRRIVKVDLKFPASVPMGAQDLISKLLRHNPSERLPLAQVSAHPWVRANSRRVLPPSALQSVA
T2 sequence (Q05397 422-680 limits assumed): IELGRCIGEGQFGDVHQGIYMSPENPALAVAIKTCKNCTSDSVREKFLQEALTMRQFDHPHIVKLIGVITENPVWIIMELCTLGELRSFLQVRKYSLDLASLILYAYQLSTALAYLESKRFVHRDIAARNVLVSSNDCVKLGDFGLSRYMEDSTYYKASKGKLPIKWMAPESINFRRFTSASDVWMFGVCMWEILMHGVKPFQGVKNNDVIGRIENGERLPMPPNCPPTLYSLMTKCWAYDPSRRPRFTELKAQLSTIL

IC50 (AURKB (Aurora B) enzyme) [nM]	IC50 (recombinant human FAK1) [nM]	Structure (SMILES)
> 1000		Cc1nn(Cc2cccnc2N(C)S(C)(=O)=O)c2cc(Nc3ccc4c(c3)CCC(=O)N4)ncc12 [Example 69]
> 1000		CC(=O)Nc1ccc(Nc2cc3c(cn2)cnn3Cc2ccccc2OC(F)F)nc1 [Example 73]
> 1000		CC(=O)Nc1ccc(Nc2cc3c(cn2)cnn3Cc2ccccc2OC(F)F)cc1 [Example 75]
< 20		CN(C)S(=O)(=O)c1ccccc1Cn1ccc2cnc(Nc3ccc(N4CCNCC4)cc3)nc21 [Example 200]
< 20	< 20	CN(c1ncccc1Cn1ccc2cnc(Nc3ccc4c(c3)C(C)(C)CC(=O)N4)nc21)S(C)(=O)=O [Example 211]
< 20	< 20	CN(c1ncccc1Cn1ccc2cnc(Nc3ccc4c(c3)OCC(=O)N4)nc21)S(C)(=O)=O [Example 218]
< 20	< 20	C[C@H]1CN(c2ccc(Nc3ncc4ccn(S(=O)(=O)c5cccc6cccnc56)c4n3)cc2)CCN1 [Example 230]
< 20	< 20	O=S(=O)(c1cccc2cccnc12)n1ccc2cnc(Nc3ccc(N4CCNCC4)cc3)cc21 [Example 321]
< 20	< 20	C[C@H]1CNCCN1c1ccc(Nc2ncc3ccn(S(=O)(=O)c4cccc5cccnc45)c3n2)cc1 [Example 326]
< 20	< 20	O=S(=O)(c1cccc2cccnc12)n1ccc2cnc(Nc3ccc(N4CCN(CCO)CC4)cc3)cc21 [Example 340]
< 20	< 20	CN1CCN(c2ccc(Nc3cc4c(ccn4S(=O)(=O)c4cccc5cccnc45)cn3)cc2)CC1 [Example 353]
< 20		Cc1ccc2cccc(S(=O)(=O)n3ccc4cnc(Nc5ccc(N6CCNCC6)cc5)nc43)c2n1 [Example 367]
< 20		c1cnc2c(Cn3ccc4cnc(Nc5ccc(N6CCNCC6)cc5)nc43)cccc2c1 [Example 378]
< 20	< 20	O=S(=O)(c1cccc2cccnc12)n1ccc2cnc(Nc3ccc4ncsc4c3)nc21 [Example 381]
< 20	< 20	O=S(=O)(c1cccc2cccnc12)n1ccc2cnc(Nc3ccc(N4CCOCC4)cc3)nc21 [Example 389]
< 20	< 20	Cc1cc(Nc2cc3c(ccn3S(=O)(=O)c3ccccc3C#N)cn2)ccc1N1CCNCC1 [Example 390]
> 1000		CN(c1ncccc1CN1C(=O)Cc2cnc(Nc3ccc(N4CCC(O)CC4)cc3)nc21)S(C)(=O)=O [Example 404]
> 1000		C[C@@H]1CN(c2ccc(Nc3ncc4c(n3)N(S(=O)(=O)c3ccccc3C#N)CC4(C)C)cc2)CCN1 [Example 466]
< 20		C[C@@H]1CNCCN1c1ccc(Nc2ncc3ccn(Cc4ccccc4N(C)S(C)(=O)=O)c3n2)cc1 [Example 482]
< 20		C[C@H]1CN(c2ccc(Nc3ncc4ccn(Cc5cccnc5N(C)S(C)(=O)=O)c4n3)cc2)CCN1C [Example 487]
< 20		C[C@@H]1CN(C)CCN1c1ccc(Nc2ncc3ccn(Cc4ccccc4N(C)S(C)(=O)=O)c3n2)cc1 [Example 488]
> 1000		CC1(C)CN(S(=O)(=O)c2cccc3cccnc23)c2nc(Nc3ccc(N4CCNCC4)c(F)c3)ncc21 [Example 524]
> 1000		C[C@H]1CN(c2ccc(Nc3ncc4c(n3)N(S(=O)(=O)c3cccc5cccnc35)CC4(C)C)cc2F)CCN1 [Example 554]
< 20		N#Cc1ccccc1S(=O)(=O)n1ccc2cnc(Nc3ccc(C4CNCCN4)cc3)cc21 (stereo not shown) [Example 614]
> 1000		Cc1cc(Nc2ncc3c(n2)N(S(=O)(=O)c2cccc4cccnc24)CC3(C)C)ccc1N1CCC(N(C)C)CC1 [Example 648]
< 20		C[C@H](O)CN1CCN(c2ccc(Nc3ncc4ccn(Cc5ccccc5N(C)S(C)(=O)=O)c4n3)cc2)C[C@H]1C [Example 692]

More lines, now with the values behind:

Structure (SMILES)	IC50 (AURKB (Aurora B) enzyme) [nM]	IC50 (recombinant human FAK1) [nM]
N#Cc1ccccc1S(=O)(=O)n1ccc2cnc(Nc3ccc4c(c3)CCC(=O)N4)nc21 [Example 115]	< 20	< 20
CN(C)c1cccc(Nc2ncc3ccn(Cc4cccnc4N(C)S(C)(=O)=O)c3n2)c1 [Example 139]	< 20	< 20
Nc1ccccc1S(=O)(=O)n1ccc2cnc(Nc3ccc4c(c3)CCC(=O)N4)nc21 [Example 164]	< 20	
CN(c1ncccc1Cn1ccc2cnc(Nc3cccc(CO)c3)nc21)S(C)(=O)=O [Example 166]	< 20	
CN(C)CCOc1cccc(Nc2ncc3ccn(S(=O)(=O)c4ccccc4C#N)c3n2)c1 [Example 173]	< 20	
CN(c1ncccc1Cn1ccc2cnc(Nc3ccc4nn[nH]c4c3)nc21)S(C)(=O)=O [Example 189]	< 20	
O=S(=O)(c1cccc2cccnc12)n1ncc2cnc(Nc3ccc(N4CCNCC4)cc3)nc21 [Example 231, N-(4-(piperazin-1-yl)phenyl)-1-(quinolin-8-ylsulfonyl)-1H-pyrazolo[3,4-d]pyrimidin-6-amine]	< 20	< 20
O=S(=O)(c1cccc2cccnc12)n1ccc2cnc(Nc3ccc(N4CCNCC4)c(F)c3)cc21 [Example 323]	< 20	< 20
O=S(=O)(c1cccc2cccnc12)n1ccc2cnc(Nc3ccc(N4CCC(O)CC4)cc3)cc21 [Example 346]	< 20	< 20
O=c1[nH]c2ccc(Nc3ncc4ccn(S(=O)(=O)c5cccc6cccnc56)c4n3)cc2[nH]1 [Example 395]	< 20	< 20
CC1(C)CN(S(=O)(=O)c2ccccc2C#N)c2nc(Nc3ccc(N4CCNCC4)cc3)ncc21 [Example 461]	> 1000	
CN(c1ccccc1Cn1ccc2cnc(Nc3ccc(N4CCC(N)CC4)cc3)nc21)S(C)(=O)=O [Example 463]	< 20	
CN1CCN(c2ccc(Nc3ncc4c(n3)N(S(=O)(=O)c3cccc5cccnc35)CC4(C)C)cc2)CC1 [Example 498]	> 1000	
N#Cc1ccccc1S(=O)(=O)n1ccc2cnc(Nc3ccc4c(c3)CC3CNCCN43)cc21 (stereo not shown) [Example 551]	< 20	
CN(c1ccccc1Cn1ccc2cnc(Nc3ccc(N4CCNC(C)(C)C4=O)cc3)nc21)S(C)(=O)=O [Example 552]	< 20	
C[C@H]1CN(c2ccc(Nc3ncc4ccn(Cc5ccccc5N(C)S(C)(=O)=O)c4n3)cc2F)CCN1 [Example 557]	< 20	
C[C@H]1CNCCN1c1ccc(Nc2ncc3c(n2)N(S(=O)(=O)c2cccc4cccnc24)CC3(C)C)cc1 [Example 564]	> 1000	
CN(C)C1CCCN(c2ccc(Nc3ncc4ccn(Cc5ccccc5N(C)S(C)(=O)=O)c4n3)cc2)C1 (stereo not shown) [Example 598]	< 20	
CN(c1ccccc1Cn1ccc2cnc(Nc3ccc(N4CCNC(CO)C4)cc3)nc21)S(C)(=O)=O (stereo not shown) [Example 602]	< 20	
CN(C)C1CN(c2ccc(Nc3ncc4ccn(Cc5ccccc5N(C)S(C)(=O)=O)c4n3)cc2F)C1 [Example 608]	< 20	
CN(c1ccccc1Cn1ccc2cnc(Nc3ccc(C4CNCCN4)cc3)nc21)S(C)(=O)=O (stereo not shown) [Example 610]	< 20	
C[C@H](O)CN1CCN(c2ccc(Nc3cc4c(ccn4S(=O)(=O)c4ccccc4C#N)cn3)cc2)CC1 [Example 631]	< 20	
